Measurements published in patent US11472814B2, “Thienopyranones and furanopyranones as checkpoint inhibitors and modulators of anti-tumor immunity” (SignalRx Pharmaceuticals, Inc., priority 2017, dated 2022).
“And” between values parts separate entries of the source, which are not always exact repeats. Identical values can stand only once.

Columns and labels:
CT26 tumors = assay: CT26 tumor growth in immunocompetent Balb/c mice; format: in vivo
Description: (§1) We investigated the effect of Compound 3 on immune cell in vitro and on tumor growth in in vivo in immunocompetent syngeneic tumor models and the effects on the macrophage and T cell immune compartment in vivo by this compound. […] In order to distinguish whether Compound 3 blocks tumor growth due to its effect on immune cell compartment and not on tumor compartment, we tested the effect of this chemotype on CT26 tumor growth in immunodeficient NSG mice vs immunocompetent Balb/c mice. […] Compound 3 has combinatorial immune-oncologic activity in vivo to stimulate anti-cancer innate and adaptive immunity in well-defined accepted immune competent murine models for cancer immunotherapy.
Tumor volumes of CT26 inoculated subcutaneously in Balb/c mice treated with 3 mg/Kg Compound 3, or 200 ug anti-PDL1 or both. Conclusion: Compound 3 has greater antitumor immune activating activity as compared to anti-PDL1 monoclonal antibody treatment in this in vivo immune-oncology model. Compound 3 suppressed tumor growth by 88% in this model (n=6, p<0.001, t test) as compared to vehicle control treated mice.
Conclusion: this establishes effect of Compound 3 as immune-oncologically active agent in cancer immunotherapy. In immunocompetent mice with same tumor cell ino kculum Compound 3 inhibited CT26 tumor growth by 58% decrease in tumor volume. (n=x, p<0.001, t test).
In contrast to above data, Compound 3 has a marked significant inhibitory effect on CT26, LLC and MC38 tumor growth in immunocompetent murine models. Conclusion: this establishes effect of Compound 3 as immune-oncologically active agent in cancer immunotherapy. In immunocompetent mice with same tumor cell inoculum Compound 3 inhibited tumor growth by from 58-68%. p<0.001 in all experiments compared to vehicle control.

[1] = LLC tumor growth in immunocompetent WT mice; format: in vivo; settings: CT26, LLC and MC38 in immunocompetent mice
Description: as §1
Compound 3: a novel dual Syk/PI3K inhibitory chemotype: Combinatorial inhibition of Syk and PI3K increases anti-tumor innate and adaptive T cell immune response in vivo. Tumor volume of LLC inoculated subcutaneously in WT mice treated with 10 mg/Kg Compound 3 (n=9, ***p<0.0001, t test). Conclusion: Compound 3 suppressed tumor growth of LLC by 68% in this immunocompetent immune-oncology model system as compared to vehicle control treated mice.
In contrast to above data, Compound 3 has a marked significant inhibitory effect on CT26, LLC and MC38 tumor growth in immunocompetent murine models. Conclusion: this establishes effect of Compound 3 as immune-oncologically active agent in cancer immunotherapy. […]

BRD4-2 = biological target: T1, BRD4-2 (Homo sapiens, UniProt O60885); assay: Bromodomain protein inhibition IC50, binding domain 2 of BRD4 (Reaction Biology Corp.); settings: 10-point curve
T1 construct: purchased Reaction Biology Corp., Malvern, Pa; (contract assay service)
Description: (§2) The inhibitory activity of a compound of the invention against PI3K and/or BRD4 and/or SYK and/or CDK4/6 can be readily determined using methods known to the skilled artisan, or by commercial vendors offering such services. […] In vivo, PI3K inhibition can be determined from target tissue biopsies by standard tissue processing to disrupt cells and then performing Western Blot analysis to determine the presence or absence of pAKT (substrate of PI3K) relative to a control sample. The activity of a compound of the invention as an inhibitor of a bromodomain-containing protein, such as a BET protein, such as BRD2, BRD3, BRD4, and/or BRDT, or an isoform or mutant thereof, may be determined in vitro, in vivo, or in a cell line. In vitro assays include assays that determine inhibition of bromodomain-containing proteins. Alternatively, inhibitor binding may be determined by running a competition experiment where a provided compound is incubated with a bromodomain-containing protein, such as a BET protein bound to known ligands, labeled or unlabeled. For example, bromodomain inhibition can be determined in vitro using Alpha Screen Technology (http://www.reactionbiologv.com/webapps/site/NewsPDFs/Bromodomain%20Assay %20Platform %20for %20Drug %20Screening %20and %20Discovery.pdf). In vivo bromodomain inhibition can be determined indirectly by evaluating the amount of protein present of proteins whose genes' transcription is influenced or controlled by the bromodomain protein, for example, the MYCN protein transcription is controlled by BRD4 (J. E. Delmore et al., Cell 2011, 146, 904-917; A. Puissant, Cancer Discov. 2013, 3, 308-323). Bromodomain inhibition may also be predicted by in silico modeling as described below in the Examples. Additionally, the company Promega offers a SYK luminescent assay to determine a compound's ability to inhibit the SYK protein (https://www.promega.com/-/media/files/resources/protocols/kinase-enzyme-appnotes/syk-kinase-assay-protocol.pdf?la=en).
(§3) Compounds of the invention were characterized for their ability to inhibit target proteins using third party vendors offering such services. PI3K alpha, gamma, and delta inhibition activity was determined by Thermo Fisher Scientific-Biosciences Life Sciences Solutions, Madison, Wis. The bromodomain protein inhibition (binding domain 1 and 2 of BRD4) as well as SYK inhibition was determined at Reaction Biology Corp., Malvern, Pa. […] The IC50 data (shown below in Table 5) was calculated from a 10-point curve and is expressed in nanomolar concentration (nM) rounded off to the nearest whole number. […]

SYK = biological target: T2, SYK (Homo sapiens, UniProt P43405); assay: SYK inhibition IC50 (Reaction Biology Corp.); format: biochemical; settings: 10-point curve; read-out: SYK IC50
T2 construct: purchased Reaction Biology Corp., Malvern, Pa; (contract assay service)
Description: as §2
Compounds of the invention were characterized for their ability to inhibit target proteins using third party vendors offering such services. PI3K alpha, gamma, and delta inhibition activity was determined by Thermo Fisher Scientific-Biosciences Life Sciences Solutions, Madison, Wis. The bromodomain protein inhibition (binding domain 1 and 2 of BRD4) as well as SYK inhibition was determined at Reaction Biology Corp., Malvern, Pa. Additional information on each of the assays performed and services provided is available at each company's website on the internet (https://www.thermofisher.com/us/en/home/life-science.html and http://www.reactionbiology.com/webapps/site, respectively). The IC50 data (shown below in Table 5) was calculated from a 10-point curve and is expressed in nanomolar concentration (nM) rounded off to the nearest whole number. Where multiple values were obtained the range from lowest to highest values is presented. NI=no inhibition detected up to 50 uM or IC50 not reached at 50 uM.

PI3K γ = biological target: T3, PI3K γ (Homo sapiens, UniProt P48736); assay: PI3K gamma inhibition IC50 (Thermo Fisher); format: biochemical; settings: 10-point curve
T3 construct: purchased Thermo Fisher Scientific-Biosciences Life Sciences Solutions, Madison, Wis; (contract assay service)
Description: as §2, §3

T3 sequence (P48736 whole entry): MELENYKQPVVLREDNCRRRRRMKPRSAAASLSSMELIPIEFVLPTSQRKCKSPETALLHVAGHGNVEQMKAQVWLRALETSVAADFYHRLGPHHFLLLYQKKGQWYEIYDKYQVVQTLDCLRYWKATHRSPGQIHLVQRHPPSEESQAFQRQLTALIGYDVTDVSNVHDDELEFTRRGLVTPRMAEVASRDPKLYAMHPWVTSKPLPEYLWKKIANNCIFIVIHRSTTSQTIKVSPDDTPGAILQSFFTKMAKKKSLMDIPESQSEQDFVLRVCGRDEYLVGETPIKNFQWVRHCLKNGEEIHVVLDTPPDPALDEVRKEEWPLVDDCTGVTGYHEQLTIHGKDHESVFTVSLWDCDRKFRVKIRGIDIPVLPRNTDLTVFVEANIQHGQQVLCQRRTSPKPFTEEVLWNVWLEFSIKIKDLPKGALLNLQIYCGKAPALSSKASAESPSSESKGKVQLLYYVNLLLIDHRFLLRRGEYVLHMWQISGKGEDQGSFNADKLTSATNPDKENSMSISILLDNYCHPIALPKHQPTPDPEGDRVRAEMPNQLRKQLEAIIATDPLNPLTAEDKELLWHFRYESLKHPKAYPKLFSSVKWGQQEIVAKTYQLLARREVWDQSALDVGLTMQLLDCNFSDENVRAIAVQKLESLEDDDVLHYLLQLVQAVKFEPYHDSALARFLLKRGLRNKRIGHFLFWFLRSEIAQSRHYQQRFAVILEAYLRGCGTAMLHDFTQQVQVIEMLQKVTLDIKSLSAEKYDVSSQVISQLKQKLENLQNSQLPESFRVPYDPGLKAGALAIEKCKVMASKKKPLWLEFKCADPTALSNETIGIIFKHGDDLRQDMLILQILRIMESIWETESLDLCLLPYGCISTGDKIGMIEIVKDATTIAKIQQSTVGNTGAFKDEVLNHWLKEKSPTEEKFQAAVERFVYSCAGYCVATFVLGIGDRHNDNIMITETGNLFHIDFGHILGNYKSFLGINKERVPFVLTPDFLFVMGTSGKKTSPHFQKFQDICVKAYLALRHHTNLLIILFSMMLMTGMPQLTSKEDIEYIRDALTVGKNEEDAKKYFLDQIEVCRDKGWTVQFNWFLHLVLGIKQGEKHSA

Cc1nn(-c2ccnc(Nc3ccc(-c4csc5c(=O)cc(N6CCOCC6)oc45)cc3)n2)cc1CN1CCC1 [Compound 3, 3-[p-(4-{4-[(1-Azetidinyl)methyl]-3-methyl-1H-pyrazol-1-yl}-2-pyrimidinylamino)phenyl]-5-morpholino-4-oxa-1-thia-7-indenone]
CT26 tumor growth suppression (CT26 tumors; Balb/c mice, 3 mg/Kg, n=6, vs vehicle): 88% | % Growth inhibition compared to control (CT26 tumors; CT26 subcutaneous in Balb/c mice, 3 mg/Kg Compound 3, 200 ug anti-PDL1 or both, n=6): 88 ± 10% | % Growth inhibition of CT26 tumor (CT26 tumors; immunocompetent Balb/c mice, vs vehicle): 58% and 58 +/− 10% | CT26 tumor growth, combination (CT26 tumors; in combination with anti-PDL1 antibody): decrease in tumor growth | tumor growth inhibition across models [1]: 58-68% | IC50 (BRD4-2): 1 to 5 µM | IC50 (SYK): < 0.1 µM | IC50 (PI3K γ): 5 to 50 µM
